Assay results: PMC7083837 (Nature Communications, 2020)
Where “and” joins values, the source holds several entries; their conditions need not be identical. Identical values can stand only once.

How the values were obtained:
SERT WT [1] = biological target: T1, SERT WT (Homo sapiens, UniProt P31645); test: [3H]5-HT uptake in intact COS-7 cells; type: cell-based; parameters: 5-HT uptake: unit not given here; details: for 5-HT uptake: Fig 5B
T1 construct: expressed in transfected cells; host or cells: COS-7

SERT WT [2] = biological target: T1, SERT WT; test: [3H]S-CIT competition (equilibrium) binding on COS-7 membranes;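 note: transiently transfected cell membranes incubated 1 h at room temperature with 5–10 nM [3H]S-CIT, nonspecific binding defined using 5 µM paroxetine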
SERT WT [3] = biological target: T1, SERT WT; test: [3H]S-CIT dissociation rate assay (allosteric potency); type: binding
SERT A486E-K490A = biological target: T2, SERT A486E-K490A (Homo sapiens, UniProt P31645, A486E/K490A); test: [3H]IMI dissociation rate assay; type: binding; details: A486E-K490A
T2 construct: expressed in transfected cells; host or cells: COS-7
Protocol: All mutations were confirmed by DNA sequencing. The used primers were
The allosteric potency was calculated as previously described.

T1 sequence (P31645 whole entry): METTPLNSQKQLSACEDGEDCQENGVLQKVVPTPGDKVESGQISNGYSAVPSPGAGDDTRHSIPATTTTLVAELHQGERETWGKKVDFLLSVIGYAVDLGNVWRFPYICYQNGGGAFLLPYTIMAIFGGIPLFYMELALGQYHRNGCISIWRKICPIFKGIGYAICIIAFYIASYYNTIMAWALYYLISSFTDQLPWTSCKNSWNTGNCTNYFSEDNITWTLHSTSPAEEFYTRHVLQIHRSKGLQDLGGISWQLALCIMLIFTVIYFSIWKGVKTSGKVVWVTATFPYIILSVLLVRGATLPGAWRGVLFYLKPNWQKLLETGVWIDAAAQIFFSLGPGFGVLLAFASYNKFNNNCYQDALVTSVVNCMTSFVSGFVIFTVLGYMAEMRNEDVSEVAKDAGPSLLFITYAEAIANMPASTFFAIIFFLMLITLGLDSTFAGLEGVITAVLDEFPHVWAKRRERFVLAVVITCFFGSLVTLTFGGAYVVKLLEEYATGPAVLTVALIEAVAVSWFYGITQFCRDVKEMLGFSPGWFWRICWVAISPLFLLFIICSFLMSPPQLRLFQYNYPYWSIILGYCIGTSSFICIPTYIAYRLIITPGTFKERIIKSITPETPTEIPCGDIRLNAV
T2 sequence (P31645 whole entry A486E/K490A): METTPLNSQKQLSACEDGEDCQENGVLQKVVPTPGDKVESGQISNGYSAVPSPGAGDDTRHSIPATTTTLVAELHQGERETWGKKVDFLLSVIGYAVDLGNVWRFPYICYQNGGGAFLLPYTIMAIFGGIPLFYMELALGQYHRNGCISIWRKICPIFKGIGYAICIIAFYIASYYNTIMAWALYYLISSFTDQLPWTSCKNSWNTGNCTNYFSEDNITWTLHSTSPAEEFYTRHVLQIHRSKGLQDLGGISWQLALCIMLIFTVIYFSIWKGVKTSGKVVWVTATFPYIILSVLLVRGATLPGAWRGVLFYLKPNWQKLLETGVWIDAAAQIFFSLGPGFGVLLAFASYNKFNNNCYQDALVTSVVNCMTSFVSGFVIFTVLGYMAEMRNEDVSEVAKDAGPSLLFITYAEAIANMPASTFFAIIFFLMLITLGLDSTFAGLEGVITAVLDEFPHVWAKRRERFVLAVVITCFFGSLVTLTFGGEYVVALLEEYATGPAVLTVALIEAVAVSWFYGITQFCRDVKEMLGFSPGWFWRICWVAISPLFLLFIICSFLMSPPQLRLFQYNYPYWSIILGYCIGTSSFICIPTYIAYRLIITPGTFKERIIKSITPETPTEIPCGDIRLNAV

NC(=O)c1ccc2c(c1)CO[C@@]2(CCCN1CCC(c2ccc3ccc(=O)[nH]c3c2)CC1)c1ccc(F)cc1 [Lu AF60097, (S)-1-(4-fluorophenyl)-1-(3-(4-(2-oxo-1,2-dihydroquinolin-7-yl)piperidin-1-yl)propyl)-1,3-dihydroisobenzofuran-5-carboxamide]
Vmax 5-HT (SERT WT [1]; 10 nM Lu AF60097): 1232 ± 48 fmol/min | Vmax 5-HT (SERT WT [1]; 20 nM Lu AF60097): 1279 ± 64 fmol/min | Vmax 5-HT (SERT WT [1]; 40 nM Lu AF60097): 1007 ± 58 fmol/min | Vmax 5-HT (SERT WT [1]; 80 nM Lu AF60097): 1361 ± 78 fmol/min | Vmax 5-HT (SERT WT [1]; 160 nM Lu AF60097): 1235 ± 34 fmol/min | Vmax 5-HT (SERT WT [1]; 320 nM Lu AF60097): 973 ± 25 fmol/min | Vmax 5-HT (SERT WT [1]; 640 nM Lu AF60097): 971 ± 21 fmol/min | inhibition at 0.027 µM (SERT WT [1]; COS-7, read-out: Decrease (inhibition) of [^3H]5-HT uptake relative to control, IMI 4 nM, Lu AF60097 27 nM, alone or together): 5 ± 1.8% | 5-HT uptake (SERT WT [1]; 0.1474 µM 5HT, 10 nM AF60097): 289.4 and 268.7 and 257.4 and 246.6 and 314.6 | 5-HT uptake (SERT WT [1]; 0.1474 µM 5HT, 20 nM AF60097): 295.7 and 305.6 and 246.2 and 292.1 and 271.4 | 5-HT uptake (SERT WT [1]; 0.1474 µM 5HT, 80 nM AF60097): 149 and 175.1 and 138.2 and 177.3 and 172.8 | 5-HT uptake (SERT WT [1]; 0.1474 µM 5HT, 160 nM AF60097): 193.5 and 184.1 and 172.4 and 177.3 and 155.3 | 5-HT uptake (SERT WT [1]; 0.1474 µM 5HT, 320 nM AF60097): 124.2 and 120.2 and 98.55 and 160.4 and 125 | 5-HT uptake (SERT WT [1]; 0.1474 µM 5HT, 640 nM AF60097): 82.89 and 76.41 and 75.6 and 73.71 | 5-HT uptake (SERT WT [1]; 0.2395 µM 5HT, 10 nM AF60097): 401.9 and 351.5 and 378.9 and 356.9 and 437.9 | 5-HT uptake (SERT WT [1]; 0.2395 µM 5HT, 20 nM AF60097): 431.1 and 402.3 and 370.8 and 428 and 381.2 | 5-HT uptake (SERT WT [1]; 0.2395 µM 5HT, 80 nM AF60097): 239.4 and 237.2 and 197.1 and 278.1 and 258.3 | 5-HT uptake (SERT WT [1]; 0.2395 µM 5HT, 160 nM AF60097): 283.1 and 275.9 and 262.8 and 254.3 and 202.5 | 5-HT uptake (SERT WT [1]; 0.2395 µM 5HT, 320 nM AF60097): 170.4 and 178.2 and 155 and 215.5 and 193.6 | 5-HT uptake (SERT WT [1]; 0.2395 µM 5HT, 640 nM AF60097): 119.3 and 114.2 and 108 and 121.2 | 5-HT uptake (SERT WT [1]; 0.4844 µM 5HT, 10 nM AF60097): 585 | 5-HT uptake (SERT WT [1]; 0.4844 µM 5HT, 20 nM AF60097): 624.2 and 642.2 and 563.4 and 555.8 and 512.1 | 5-HT uptake (SERT WT [1]; 0.4844 µM 5HT, 160 nM AF60097): 469.4 and 426.6 and 404.6 and 365.9 and 356 | 5-HT uptake (SERT WT [1]; 0.4844 µM 5HT, 320 nM AF60097): 301.6 and 284.3 and 264.9 | 5-HT uptake relative to ctrl (ctrl = 100) (SERT WT [1]; Fig 5C, 27 nM AF60097): 100 and 97 and 96 and 91 and 88 | [^3H]5-HT uptake (in % of buffer/control) (SERT WT [1]; IMI 4 nM, Lu AF60097 27 nM, alone or together): 95 ± 1.8% | Ki (SERT WT [1]; SERT WT): 0.22 µM | IC50 (SERT WT [1]; hSERT in COS-7 cells): 0.207 µM | IC50 (SERT WT [2]; COS-7 membranes, SERT WT, read-out: Inhibition of [^3H]S-CIT binding (IC50)): 0.27 µM | Displacement of [3H]S-CIT binding (normalized bound, Fig S6) (SERT WT [2]; log[Lu AF60097] -4.9586): 0.02221 and 0.02599 | Displacement of [3H]S-CIT binding (normalized bound, Fig S6) (SERT WT [2]; log[Lu AF60097] -6.4638): 0.4362 and 0.4819 and 0.2888 | Displacement of [3H]S-CIT binding (normalized bound, Fig S6) (SERT WT [2]; log[Lu AF60097] -6.7648): 0.6201 and 0.6384 and 0.4362 | Displacement of [3H]S-CIT binding (normalized bound, Fig S6) (SERT WT [2]; log[Lu AF60097] -7.0658): 0.7487 and 0.8379 and 0.6201 | Displacement of [3H]S-CIT binding (normalized bound, Fig S6) (SERT WT [2]; log[Lu AF60097] -7.3668): 0.8096 and 1.0297 and 0.7487 | Displacement of [3H]S-CIT binding (normalized bound, Fig S6) (SERT WT [2]; log[Lu AF60097] -7.6679): 0.9347 and 1.009 and 0.8096 | Displacement of [3H]S-CIT binding (normalized bound, Fig S6) (SERT WT [2]; log[Lu AF60097] -7.8213): 0.9058 | Displacement of [3H]S-CIT binding (normalized bound, Fig S6) (SERT WT [2]; log[Lu AF60097] -8.2985): 0.9777 and 0.9058 | Displacement of [3H]S-CIT binding (normalized bound, Fig S6) (SERT WT [2]; log[Lu AF60097] -9): 0.999 and 0.9777 | [^3H]S-CIT dissociation relative to control (source data Fig 3B) (SERT WT [3]; log conc -4): 0.1541 and 0.1918 and 0.2298 | [^3H]S-CIT dissociation relative to control (source data Fig 3B) (SERT WT [3]; log conc -4.47756): 0.2646 and 0.3943 and 0.2986 and 0.219 and 0.3366 | [^3H]S-CIT dissociation relative to control (source data Fig 3B) (SERT WT [3]; log conc -4.95468): 0.4248 and 0.6032 and 0.3921 and 0.3044 and 0.3481 | [^3H]S-CIT dissociation relative to control (source data Fig 3B) (SERT WT [3]; log conc -5.4318): 0.6087 and 0.8042 and 0.6275 and 0.541 and 0.6453 | [^3H]S-CIT dissociation relative to control (source data Fig 3B) (SERT WT [3]; log conc -5.9101): 0.7519 and 0.9034 and 0.8094 and 0.7437 and 0.8779 | [^3H]S-CIT dissociation relative to control (source data Fig 3B) (SERT WT [3]; log conc -6.38561): 0.8673 and 0.9045 and 0.9664 and 0.838 and 0.8643 | [^3H]S-CIT dissociation relative to control (source data Fig 3B) (SERT WT [3]; log conc -6.86273): 0.9943 and 0.9294 and 0.9623 | IC50 (SERT WT [3]; read-out: Allosteric potency inhibition of [^3H]S-CIT dissociation (IC50)): 6.5 µM | ΔAP (mut/WT), change in allosteric potency relative to SERT WT (SERT A486E-K490A; [^3H]IMI dissociation): 77 | [^3H]IMI dissociation relative to control (source data Fig 4B) (SERT A486E-K490A; log conc -4.955): 0.2089 and 0.1837 and 0.2062 | [^3H]IMI dissociation relative to control (source data Fig 4B) (SERT A486E-K490A; log conc -5.432): 0.4714 and 0.3471 and 0.3282 | [^3H]IMI dissociation relative to control (source data Fig 4B) (SERT A486E-K490A; log conc -5.91): 0.664 and 0.6181 and 0.6285
